Values after ≈ are worked out from the molar mass of the structure shown.
Key:
[1] = test system: Pseudomonas aeruginosa CNCM A22; experiment: Bactericidal activity (MBC), strain 3; type: cell-based; conditions: CNCMA22, 20 min, strain 3, 20 minutes of contact, read-out: Minimum bactericidal concentration (MBC)
Source text: (§1) The bactericidal activity of the products according to the invention has been analyzed on various strains by the method described hereafter:
(§2) A bacterial inoculum is placed in contact with different dilutions of the product to be tested, and this for a limited period of time. At the end of contact, an aliquot part of the mixture bacterial suspension/product is deposited on the surface of an agar culture medium containing an agent neutralizing the antibacterial activity of the product. The bactericidal concentration retained is the smallest concentration of the product from which bacteria stop growing. Said concentration is expressed in μg/ml.
(§3) The bacterial strains selected for the analysis are:
3--Pseudomonas aeruginosa CNCM A22;
(§4) The second strain is supported on a Worgel Fergusson medium, the other strains being supported on Tryptic Soy Agar-Difco (TSA) commercialized by Difco.
(§5) After a 24-hour culture period at 37° C., the microbial growth is collected by means of glass beads and of 10 ml of diluent containing 1 g of tryptone and 8.5 g of sodium chloride in 1000 ml of distilled water. The formed suspension is stirred and the percentage of light transmission at 620 nm is measured with a spectrophotometer:
(§6) The bacterial inoculum corresponds to a 1/20th dilution of this bacterial suspension.
(§7) Plates equipped with cupules receive different dilutions of the product to be analyzed. These dilutions are placed in contact with the different bacterial suspensions by means of a multiple-center inoculator. After 20 minutes of contact, aliquot parts are transferred by means of said inoculator on the surface of an agar medium (TSA) in Petri dishes, containing an activity-neutralizing agent, namely 20 g of lubrol W, 25 g of Tween 80 and 2.5 g of sodium thiosulfate in 1000 ml of TSA (Difco). The efficiency of the neutralizing agent is controlled for each product to be analyzed by depositing on the surface of the culture medium an aliquot part of the dilution of the product to be analyzed. After drying, the corresponding inoculum is deposited in the same place. An inoculum control is performed on an agar medium with or without neutralizing agent. Readings are taken after 48 hours of incubation at 37° C.

[2] = test system: Staphylococcus aureus CNCM 53154; experiment: Bactericidal activity (MBC), strain 5; type: cell-based; conditions: CNCM53154, 20 min, strain 5, 20 minutes of contact, read-out: Minimum bactericidal concentration (MBC)
Source text: as §1, §2, §3
5--Staphylococcus aureus CNCM 53154.
as §4, §5, §6, §7

[3] = test system: Streptococcus faecalis CNCM 5855; experiment: Bactericidal activity (MBC), strain 4; type: cell-based; conditions: Enterococcus faecalis, CNCM5855, 20 min; strain 4, 20 minutes of contact; read-out: Minimum bactericidal concentration (MBC)
Source text: as §1, §2, §3
4--Streptococcus faecalis CNCM 5855;
as §4, §5, §6, §7

[4] = test system: Escherichia Coli CNCM 54125; experiment: Bactericidal activity (MBC), strain 1; type: cell-based; conditions: 20 min, strain 1, 20 minutes of contact, read-out: Minimum bactericidal concentration (MBC)
Source text: as §1, §2, §3
1--Escherichia Coli CNCM 54125;
as §4, §5, §6, §7

[5] = test system: Encapsulated klebsiella pneumoniae R030; experiment: Bactericidal activity (MBC), strain 2; type: cell-based; conditions: 20 min, strain 2, 20 minutes of contact, read-out: Minimum bactericidal concentration (MBC)
Source text: as §1, §2, §3
2--Encapsulated klebsiella pneumoniae R030;
as §4, §5, §6, §7

[6] = test system: Torulopsis glabrata 072023; experiment: Antifungal activity (MFC), strain 4; type: cell-based; conditions: 20 min; yeast strain 4; read-out: Minimum fongicidal concentration (MFC)
Source text: as §2, §7
(§8) The antifungal activity of the products according to the invention was also determined with the aforedescribed method.
(§9) The fungal strains selected for the analysis are:
(§10) These strains are supported on a Sabouraud Dextrose agar medium commercialized by Difco; the technique used is the same as that used in the analysis of the antibacterial activity. After 48 hours of culture at 37° C., the microbial growth is collected with glass beads and 5 ml of diluent containing 1 g of tryptone and 8.5 g of sodium chloride in 1000 ml of distilled water; 5 ml of the diluent are then added. […] A 1/100th dilution of this suspension, observed between slides under a microscope 40-lens, should show 10 cells per frame, this corresponding to 1,000,000 yeasts per ml.

[7] = test system: Candida parakruzei 3918; experiment: Antifungal activity (MFC), strain 3; type: cell-based; conditions: 20 min; yeast strain 3; read-out: Minimum fongicidal concentration (MFC)
Source text: as §2, §7, §8, §9
3--Candida parakruzei 3918;
as §10

[8] = test system: Candida tropicalis 3834; experiment: Antifungal activity (MFC), strain 2; type: cell-based; conditions: 20 min; yeast strain 2; read-out: Minimum fongicidal concentration (MFC)
Source text: as §2, §7, §8, §9
2--Candida tropicalis 3834;
as §10

[9] = test system: Candida albicans CNCM 1180; experiment: Antifungal activity (MFC), strain 1; type: cell-based; conditions: 20 min; yeast strain 1; read-out: Minimum fongicidal concentration (MFC)
Source text: as §2, §7, §8, §9
1--Candida albicans CNCM 1180;
as §10

[10] = Acute toxicity by oral route in mice; conditions: mouse, in vivo, per os, male CD1 mice, 14 days observation
Procedure: Acute toxicity was tested by oral route in mice. This test was carried out with male mice of CD1 strain, obtained from the Charles Reever breeding farm. Each batch was composed of 5 animals of body weight varying between 24 and 30 g kept in the same cage. The animals were kept fasting for 6 hours before the treatment. For every test, the product, placed in suspension in a 10% solution of gum arabic, was administered by forcible feeding with an oesophageal probe. Food was then served to the animals 4 hours after the forcible feeding and the animals were kept under observation for a period of 14 days after the administration. During that period, the death rate is recorded for each batch of animals used in the experiment and, wherever possible, the LD50 is determined by the method of J. T. Litchfield and F. Wilcoxon, J. Pharmacol. 1949, 95, 99-113.
The results are given in mg of substance tested per kg of body weight. They are compiled in Table III below.

OCC(CCN1CCCCCC1)c1c(Cl)cccc1Cl (stereo not drawn) [SR 43 703 A]
MBC [1]: 400 µg/mL (≈ 1260 µM)
MBC [2]: 1000 µg/mL (≈ 3160 µM)
MBC [3]: 800 µg/mL (≈ 2530 µM)
MBC [4]: 600 µg/mL (≈ 1900 µM)
MBC [5]: 600 µg/mL (≈ 1900 µM)

OCC(CCN1CCC(Cc2ccccc2)CC1)c1ccccc1 (stereo not drawn) [SR 43 705 A]
MBC [1]: 500 µg/mL (≈ 1550 µM)
MBC [2]: 500 µg/mL (≈ 1550 µM)
MBC [3]: 500 µg/mL (≈ 1550 µM)
MBC [4]: 500 µg/mL (≈ 1550 µM)
MBC [5]: 500 µg/mL (≈ 1550 µM)

OCC(CCN1CCCCCC1)c1ccc(Cl)cc1Cl (stereo not drawn) [SR 43 802 A]
MBC [1]: 1000 µg/mL (≈ 3160 µM)
MBC [2]: 5000 µg/mL (≈ 15800 µM)
MBC [3]: 2000 µg/mL (≈ 6320 µM)
MBC [4]: 1000 µg/mL (≈ 3160 µM)
MBC [5]: 1000 µg/mL (≈ 3160 µM)

OCC(CCN1CCCCCC1)c1ccc(Cl)c(Cl)c1 (stereo not drawn) [SR 43 803 A]
MFC [6]: 2000 µg/mL (≈ 6320 µM)
MFC [7]: 500 µg/mL (≈ 1580 µM)
MFC [8]: 500 µg/mL (≈ 1580 µM)
MBC [1]: 500 µg/mL (≈ 1580 µM)
MFC [9]: 1000 µg/mL (≈ 3160 µM)
MBC [2]: 400 µg/mL (≈ 1260 µM)
MBC [3]: 400 µg/mL (≈ 1260 µM)
MBC [4]: 400 µg/mL (≈ 1260 µM)
MBC [5]: 400 µg/mL (≈ 1260 µM)

CCN(CC)CCCCCCCCCC(CO)c1cccc2ccccc12 (stereo not drawn) [SR 43 826 A]
MFC [6]: 250 µg/mL (≈ 676 µM)
MFC [7]: 50 µg/mL (≈ 135 µM)
MFC [8]: 50 µg/mL (≈ 135 µM)
MBC [1]: 50 µg/mL (≈ 135 µM)
MFC [9]: 250 µg/mL (≈ 676 µM)
MBC [2]: 50 µg/mL (≈ 135 µM)
MBC [3]: 50 µg/mL (≈ 135 µM)
MBC [4]: 50 µg/mL (≈ 135 µM)
MBC [5]: 50 µg/mL (≈ 135 µM)

CCN(CC)CCCCCCC(CO)c1cccc2ccccc12 (stereo not drawn) [SR 43 940 A]
MBC [1]: 50 µg/mL (≈ 153 µM)
MBC [2]: 50 µg/mL (≈ 153 µM)
MBC [3]: 50 µg/mL (≈ 153 µM)
MBC [4]: 50 µg/mL (≈ 153 µM)
MBC [5]: 50 µg/mL (≈ 153 µM)

OCC(CCCCCN1CCC(Cc2ccccc2)CC1)c1cccc2ccccc12 (stereo not drawn) [SR 43 941 A]
MFC [6]: 250 µg/mL (≈ 602 µM)
MFC [7]: 250 µg/mL (≈ 602 µM)
MFC [8]: 100 µg/mL (≈ 241 µM)
MBC [1]: 50 µg/mL (≈ 120 µM)
MFC [9]: 100 µg/mL (≈ 241 µM)
MBC [2]: 50 µg/mL (≈ 120 µM)
MBC [3]: 50 µg/mL (≈ 120 µM)
MBC [4]: 50 µg/mL (≈ 120 µM)
MBC [5]: 50 µg/mL (≈ 120 µM)

Cl.OCC(CCN1CCC(Cc2ccccc2)CC1)c1ccc(Cl)c(Cl)c1 (stereo not drawn) [SR 43 969 A, 4-(4-benzylpiperidino)-2-(3,4-dichlorophenyl)butanol hydrochloride]
MFC [6]: 500 µg/mL
MFC [7]: 100 µg/mL
MFC [8]: 50 µg/mL
MBC [1]: 500 µg/mL
MFC [9]: 50 µg/mL
MBC [2]: 50 µg/mL
MBC [3]: 100 µg/mL
MBC [4]: 50 µg/mL
MBC [5]: 100 µg/mL

OCC(CCCN1CCN(c2ccccc2)CC1)c1ccccc1 (stereo not drawn) [SR 43 970 A, reference compound]
MBC [1]: 2000 µg/mL (≈ 6160 µM)
MBC [2]: 5000 µg/mL (≈ 15400 µM)
MBC [3]: 10000 µg/mL (≈ 30800 µM)
MBC [4]: 5000 µg/mL (≈ 15400 µM)
MBC [5]: 5000 µg/mL (≈ 15400 µM)

OCC(CCN1CCC(Cc2ccccc2)CC1)c1ccc(Cl)cc1Cl (stereo not drawn) [SR 44 027 A]
MFC [6]: 250 µg/mL (≈ 637 µM)
MFC [7]: 500 µg/mL (≈ 1270 µM)
MFC [8]: 250 µg/mL (≈ 637 µM)
MBC [1]: 100 µg/mL (≈ 255 µM)
MFC [9]: 250 µg/mL (≈ 637 µM)
MBC [2]: 200 µg/mL (≈ 510 µM)
LD50 at 336 h [10]: 1000 to 1200 mg/kg
MBC [3]: 100 µg/mL (≈ 255 µM)
MBC [4]: 50 µg/mL (≈ 127 µM)
MBC [5]: 50 µg/mL (≈ 127 µM)

OCC(CCN1CCC(Cc2ccccc2)CC1)c1ccc(-c2ccccc2)cc1 (stereo not drawn) [SR 44 029 A]
MFC [6]: 100 µg/mL (≈ 250 µM)
MFC [7]: 50 µg/mL (≈ 125 µM)
MFC [8]: 50 µg/mL (≈ 125 µM)
MBC [1]: 50 µg/mL (≈ 125 µM)
MFC [9]: 50 µg/mL (≈ 125 µM)
MBC [2]: 50 µg/mL (≈ 125 µM)
MBC [3]: 50 µg/mL (≈ 125 µM)
MBC [4]: 10 µg/mL (≈ 25 µM)
MBC [5]: 50 µg/mL (≈ 125 µM)

Cc1cccc(C(CO)CCN2CCC(Cc3ccccc3)CC2)c1 (stereo not drawn) [SR 44 226 A]
MBC [1]: 500 µg/mL (≈ 1480 µM)
MBC [2]: 2000 µg/mL (≈ 5930 µM)
MBC [3]: 1000 µg/mL (≈ 2960 µM)
MBC [4]: 1000 µg/mL (≈ 2960 µM)
MBC [5]: 1000 µg/mL (≈ 2960 µM)

OCC(CCN(C1CCCCC1)C1CCCCC1)c1cccc2ccccc12 (stereo not drawn) [SR 44 227 A]
MBC [1]: 500 µg/mL (≈ 1320 µM)
MBC [2]: 500 µg/mL (≈ 1320 µM)
MBC [3]: 100 µg/mL (≈ 263 µM)
MBC [4]: 100 µg/mL (≈ 263 µM)
MBC [5]: 300 µg/mL (≈ 790 µM)
